Test results as given in patent US20070197573A1, “Compositions and methods in the treatment of bone metabolic disorders” (priority 2005, published 2007).

Tests used:
μ opioid receptor = μ opioid receptor (Homo sapiens, UniProt P35372); conditions: cited from earlier work
delta receptors = delta receptors (Homo sapiens, UniProt P41143); conditions: in vitro; cited from earlier work
human osteoblasts = conditions: in vitro treatment; cited from earlier work
[1] = cited from earlier work
sarcoma cells = assay: Tumor growth in vitro; format: cell-based
Text: (§1) The peripheral opioid antagonists according to the invention provide a conjunctive therapy for managing bone metabolism while opiates are in use. Specific data describing the metabolic effects of opiates on bone metabolism are provided in the examples.

[2] = test system: sarcoma-induced bone loss; assay: Murine bone cancer model (sarcoma cells injected into femur), radiographic bone loss, fracture and pain under sustained morphine infusion; format: in vivo, mice
osteoclasts = assay: Osteoclast count by TRAP staining in metaphysis of distal femur; format: in vivo, mice
Text: Previous studies have shown that osteolytic cancers, such as the sarcoma cell line used in these studies, upregulate osteoclasts within the bone. To determine whether the enhanced morphine-induced bone loss is mediated through further upregulation of osteoclasts, osteoclasts were stained and counted within the metaphysis of the distal head of the femur using tartrate resistant acid phosphatase (TRAP) staining.

IL-1β = IL-1β level within the bone after sustained morphine infusion; format: in vivo, mice; conditions: sarcoma-induced
Text: as §1

[3] = drug-dependent mice; cited from earlier work
[4] = sustained morphine administration

Chain of μ opioid receptor (P35372 whole entry, species assumed): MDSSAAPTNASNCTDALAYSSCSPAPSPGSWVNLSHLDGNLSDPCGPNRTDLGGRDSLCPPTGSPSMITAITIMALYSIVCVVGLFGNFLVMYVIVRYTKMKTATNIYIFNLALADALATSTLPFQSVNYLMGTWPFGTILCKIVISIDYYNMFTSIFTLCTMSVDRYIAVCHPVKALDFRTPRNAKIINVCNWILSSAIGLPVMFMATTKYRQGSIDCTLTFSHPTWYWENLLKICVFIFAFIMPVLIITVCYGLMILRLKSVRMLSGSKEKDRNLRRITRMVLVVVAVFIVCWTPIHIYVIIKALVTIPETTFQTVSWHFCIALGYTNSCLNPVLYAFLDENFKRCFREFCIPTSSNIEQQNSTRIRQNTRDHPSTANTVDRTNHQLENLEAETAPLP
Chain of delta receptors (P41143 whole entry): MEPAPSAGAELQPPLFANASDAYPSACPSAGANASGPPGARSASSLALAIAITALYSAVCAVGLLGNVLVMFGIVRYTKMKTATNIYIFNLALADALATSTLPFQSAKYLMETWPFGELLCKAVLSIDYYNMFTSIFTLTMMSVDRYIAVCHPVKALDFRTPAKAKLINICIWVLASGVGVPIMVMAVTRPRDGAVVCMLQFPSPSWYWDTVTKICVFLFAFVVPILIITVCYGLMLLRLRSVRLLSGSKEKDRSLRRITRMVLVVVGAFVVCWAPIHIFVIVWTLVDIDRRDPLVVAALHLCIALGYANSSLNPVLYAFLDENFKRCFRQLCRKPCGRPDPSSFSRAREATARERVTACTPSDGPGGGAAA

O=C1C(=Cc2ccccc2)C[C@@]2(O)[C@H]3Cc4ccc(O)c5c4[C@@]2(CCN3CC2CC2)[C@H]1O5 [BNTX, 7-benzylidenenaltrexone]
type of activity at the mu receptor (μ opioid receptor): inverse agonist
type of activity at the delta receptor (delta receptors): inverse agonist

O=C(O)Cc1ccccc1Nc1c(Cl)cccc1Cl [Diclofenac]
concentration giving a significant decrease of cell proliferation (human osteoblasts): 6 micrograms/ml
therapeutic concentration in serum [1]: approximately 1.5 micrograms/ml

COc1cccc(C2(O)CCCCC2CN(C)C)c1 (centres unmarked) [Tramadol]
concentration giving a significant decrease of cell proliferation (human osteoblasts): greater than 20 micrograms/ml
therapeutic concentration in serum [1]: 0.25 micrograms/ml

CN1CC[C@]23c4c5ccc(O)c4O[C@H]2[C@@H](O)C=C[C@H]3[C@H]1C5 [morphine]
tumor growth in vitro (sarcoma cells): did not alter
sarcoma-induced bone loss (radiograph rating) vs saline infusion ([2]; 6 days after sarcoma injection): no difference between morphine or saline treated mice
incidence of sarcoma-induced fracture vs saline infusion ([2]; 10 days and 12 days after sarcoma injection into the femur): doubled
sarcoma-induced bone loss (radiograph rating) vs saline infusion ([2]; 12 days after femoral sarcoma injection, sustained morphine infusion): increased sarcoma-induced bone loss
tumor burden in vivo ([2]; in vivo): did not alter
sarcoma-induced pain [2, 4]: enhances sarcoma-induced pain
time to fracture [2, 4]: accelerated time to fracture
osteoclast TRAP staining vs saline (osteoclasts; control animals (no sarcoma)): no difference in osteoclast staining
osteoclast TRAP staining vs saline infusion (osteoclasts; sarcoma treated animals, sustained morphine infusion): increased sarcoma-induced upregulation of osteoclasts
IL-1β within the bone (IL-1β): upregulated

CTAP
withdrawal elicited, compared with naloxone [3]: significantly less withdrawal than naloxone
